Like-named read-outs stand apart in the source and are kept apart here.
Assays:
human α2A adrenoceptor = molecular target: T1, human α2A adrenoceptor (Homo sapiens, UniProt P08913); assay: Radioligand binding, α2A adrenergic receptor
T1 construct: expressed in transfected cells
T1 sequence (P08913 1-465): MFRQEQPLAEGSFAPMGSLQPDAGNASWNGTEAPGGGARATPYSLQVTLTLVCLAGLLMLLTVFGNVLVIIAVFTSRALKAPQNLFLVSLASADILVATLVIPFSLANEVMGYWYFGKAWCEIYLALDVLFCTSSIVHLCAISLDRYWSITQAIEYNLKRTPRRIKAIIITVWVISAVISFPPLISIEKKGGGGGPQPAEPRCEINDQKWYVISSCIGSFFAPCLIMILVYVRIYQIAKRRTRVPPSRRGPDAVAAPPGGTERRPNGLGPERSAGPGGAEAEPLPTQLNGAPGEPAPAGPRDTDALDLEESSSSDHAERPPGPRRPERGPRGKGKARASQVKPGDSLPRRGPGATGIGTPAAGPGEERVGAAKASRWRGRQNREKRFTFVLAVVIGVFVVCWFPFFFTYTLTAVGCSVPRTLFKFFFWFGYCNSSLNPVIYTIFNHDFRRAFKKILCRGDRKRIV
Text: (§1) Other receptors: Cell membranes expressing human dopamine D1, D2, D4 and rat D3 receptors were purchased through BioSignal, Inc. (Montreal, Canada). Binding assays using the histamine H1 receptor; dopamine receptors; and α1A, α1E, and α2 adrenergic receptors may be carried out according to the procedures described in U.S. Patent No. 5,780,485, the disclosure of which is hereby incorporated by reference in its entirety into this application. Binding assays using the dopamine D5 receptor may be carried out according to the procedures described in U.S. Patent No. 5,882,855, the disclosure of which is hereby incorporated by reference in its entirety into this application. Binding assays for the human α1D adrenergic receptor may be carried out according to the procedures described in U.S. Patent No. 6,156,518, the disclosure of which is hereby incorporated by reference in its entirety into this application.
(§2) Binding data were analyzed using nonlinear regression and statistical techniques available in the GraphPAD Prism package (San Diego, CA). Enzymatic assay data were derived from a standard curve of reference compound data.

human 5HT1B = molecular target: T2, human 5HT1B (Homo sapiens, UniProt P28222); assay: Radioligand binding, 5HT1B receptor ([3H]-serotonin)
T2 construct: expressed in transfected cells
Procedure: Human 5HT1B, 5HT1D, 5HT1E, 5HT1F, and 5HT7 Receptors: The cell lysates of LM(tk-) clonal cell line stably transfected with the genes encoding each of these 5HT receptor-subtypes were prepared as described above. Cell membranes were suspended in 50mM Tris-HCl buffer (pH 7.4 at 37°C) containing 10 mM MgCl2, 0.2 mM EDTA, 10 µM pargyline, and 0.1% ascorbate. […] Nonspecific binding was determined in the presence of 10 µM serotonin. The bound radioligand was separated by filtration through GF/B filters using a cell harvester.
as §2

[1] = molecular target: T3, human α1D adrenergic receptor (Homo sapiens, UniProt P25100); assay: Radioligand binding, α1D adrenergic receptor
T3 construct: expressed in transfected cells
T3 sequence (P25100 1-572): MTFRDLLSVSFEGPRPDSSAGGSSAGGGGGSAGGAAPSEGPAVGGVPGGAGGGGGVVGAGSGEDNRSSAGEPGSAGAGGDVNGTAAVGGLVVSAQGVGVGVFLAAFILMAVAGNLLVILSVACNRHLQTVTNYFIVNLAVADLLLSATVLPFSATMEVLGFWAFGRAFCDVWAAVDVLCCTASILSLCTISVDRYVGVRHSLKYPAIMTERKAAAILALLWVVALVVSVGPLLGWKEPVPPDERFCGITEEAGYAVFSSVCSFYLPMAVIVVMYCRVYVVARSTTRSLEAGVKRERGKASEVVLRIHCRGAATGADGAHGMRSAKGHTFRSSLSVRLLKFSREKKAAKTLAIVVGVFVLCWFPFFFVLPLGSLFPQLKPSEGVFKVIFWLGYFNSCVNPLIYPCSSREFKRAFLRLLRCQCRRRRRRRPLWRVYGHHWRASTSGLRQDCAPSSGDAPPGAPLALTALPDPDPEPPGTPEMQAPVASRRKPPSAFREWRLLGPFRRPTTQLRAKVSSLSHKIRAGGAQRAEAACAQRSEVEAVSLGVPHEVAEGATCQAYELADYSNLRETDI
Text: as §1, §2

[2] = Table 10; Ki hα2A divided by Ki hGAL3
[3] = Table 8; Ki h5HT1B divided by Ki hGAL3
[4] = Table 10; Ki hα1D divided by Ki hGAL3

T2 sequence (P28222 whole entry): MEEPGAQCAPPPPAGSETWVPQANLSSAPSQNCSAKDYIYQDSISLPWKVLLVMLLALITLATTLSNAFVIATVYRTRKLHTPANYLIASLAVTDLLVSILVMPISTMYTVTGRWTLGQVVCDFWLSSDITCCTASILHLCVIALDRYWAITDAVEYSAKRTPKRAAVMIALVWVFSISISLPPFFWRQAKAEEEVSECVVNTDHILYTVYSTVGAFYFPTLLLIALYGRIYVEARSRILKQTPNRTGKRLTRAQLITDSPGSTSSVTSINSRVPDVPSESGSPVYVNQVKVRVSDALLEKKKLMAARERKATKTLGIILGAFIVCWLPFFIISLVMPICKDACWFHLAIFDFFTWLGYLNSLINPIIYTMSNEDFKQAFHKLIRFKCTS

Cc1ccc(Nc2cc(N3CCCCC3)nc(N(C)CCc3ccccc3)n2)cc1 [Example 22]
Ki (human α2A adrenoceptor; Table 9; read-out: hα2A Ki): 0.906 µM | selectivity ratio hα2A (human α2A adrenoceptor; [2]): >30 | Ki (human 5HT1B; Table 7; read-out: h5HT1B Ki): 1.98 µM | selectivity ratio h5HT1B (human 5HT1B; [3]): >30 | Ki ([1]; Table 9; read-out: hα1D Ki): 0.368 µM | selectivity ratio hα1D [1, 4]: 13

O=C1C(=Nc2ccc(Br)cc2)c2ccccc2N1c1ccccc1 [Example 98, 3-[(4-BROMOPHENYL)IMINO]-1-PHENYL-1,3-DIHYDRO-2H-INDOL-2-ONE]
Ki (human α2A adrenoceptor; Table 9; read-out: hα2A Ki): 23.2 µM | selectivity ratio hα2A (human α2A adrenoceptor; [2]): >100 | Ki (human 5HT1B; Table 7; read-out: h5HT1B Ki): 2.42 µM | selectivity ratio h5HT1B (human 5HT1B; [3]): >30 | Ki ([1]; Table 9; read-out: hα1D Ki): 1.89 µM | selectivity ratio hα1D [1, 4]: >30

O=C1C(=Nc2ccc(C(F)(F)F)cc2)c2ccccc2N1c1ccccc1 [Example 95, 1-PHENYL-3-[[4-(TRIFLUOROMETHYL)PHENYL]IMINO]-1,3-DIHYDRO-2H-INDOL-2-ONE]
Ki (human α2A adrenoceptor; Table 9; read-out: hα2A Ki): 30.1 µM | selectivity ratio hα2A (human α2A adrenoceptor; [2]): >100 | Ki (human 5HT1B; Table 7; read-out: h5HT1B Ki): 5.23 µM | selectivity ratio h5HT1B (human 5HT1B; [3]): >100 | Ki ([1]; Table 9; read-out: hα1D Ki): 3.47 µM | selectivity ratio hα1D [1, 4]: >100

CN(C)c1cc(Nc2ccc(Cl)c(Cl)c2)nc(Nc2ccccc2)n1 [Example 60]
Ki (human α2A adrenoceptor; Table 9; read-out: hα2A Ki): 10.8 µM | selectivity ratio hα2A (human α2A adrenoceptor; [2]): >100 | Ki (human 5HT1B; Table 7; read-out: h5HT1B Ki): 5.46 µM | selectivity ratio h5HT1B (human 5HT1B; [3]): >30 | Ki ([1]; Table 9; read-out: hα1D Ki): 4.23 µM | selectivity ratio hα1D [1, 4]: >30

CN(CCc1c[nH]c2ccccc12)c1nc(Nc2ccc(F)c(F)c2)cc(N2CCCCC2)n1 [Example 15]
Ki (human α2A adrenoceptor; Table 9; read-out: hα2A Ki): 14.4 µM | selectivity ratio hα2A (human α2A adrenoceptor; [2]): >100 | Ki (human 5HT1B; Table 7; read-out: h5HT1B Ki): 0.487 µM | selectivity ratio h5HT1B (human 5HT1B; [3]): 7 | Ki ([1]; Table 9; read-out: hα1D Ki): 0.48 µM | selectivity ratio hα1D [1, 4]: 7

Cc1ccc(Nc2cc(N3CCCCC3)nc(N(C)CCc3c[nH]c4ccccc34)n2)cc1 [Example 11]
Ki (human α2A adrenoceptor; Table 9; read-out: hα2A Ki): 1.82 µM | selectivity ratio hα2A (human α2A adrenoceptor; [2]): 20 | Ki (human 5HT1B; Table 7; read-out: h5HT1B Ki): 0.101 µM | selectivity ratio h5HT1B (human 5HT1B; [3]): 1 | Ki ([1]; Table 9; read-out: hα1D Ki): 0.264 µM | selectivity ratio hα1D [1, 4]: 3

COc1cccc(Nc2cc(N3CCCCC3)nc(N(C)CCc3c[nH]c4ccccc34)n2)c1 [Example 17]
Ki (human α2A adrenoceptor; Table 9; read-out: hα2A Ki): 3.52 µM | selectivity ratio hα2A (human α2A adrenoceptor; [2]): >30 | Ki (human 5HT1B; Table 7; read-out: h5HT1B Ki): 0.407 µM | selectivity ratio h5HT1B (human 5HT1B; [3]): 5 | Ki ([1]; Table 9; read-out: hα1D Ki): 0.221 µM | selectivity ratio hα1D [1, 4]: 3

Cc1ccc(Nc2cc(N(C)C)nc(N(C)CCc3c[nH]c4ccccc34)n2)cc1 [Example 77]
Ki (human α2A adrenoceptor; Table 9; read-out: hα2A Ki): 0.315 µM | selectivity ratio hα2A (human α2A adrenoceptor; [2]): 4 | Ki (human 5HT1B; Table 7; read-out: h5HT1B Ki): 0.365 µM | selectivity ratio h5HT1B (human 5HT1B; [3]): 5 | Ki ([1]; Table 9; read-out: hα1D Ki): 0.217 µM | selectivity ratio hα1D [1, 4]: 3

O=C1C(=Nc2cccc(C(F)(F)F)c2)c2ccccc2N1c1ccccc1 [Example 92, 1-PHENYL-3- [[3-(TRIFLUOROMETHYL)PHENYL]IMINO]-1,3-DIHYDRO-2H-INDOL-2-ONE]
selectivity ratio hα2A (human α2A adrenoceptor; [2]): >100 | selectivity ratio h5HT1B (human 5HT1B; [3]): >100 | selectivity ratio hα1D [1, 4]: >100

O=C1C(=Nc2cccc(Cl)c2)c2ccccc2N1c1ccccc1 [Example 94, 3-[(3-CHLOROPHENYL)IMINO]-1-PHENYL-1,3-DIHYDRO-2H-INDOL-2-ONE]
Ki (human α2A adrenoceptor; Table 9; read-out: hα2A Ki): 12.7 µM | selectivity ratio hα2A (human α2A adrenoceptor; [2]): >100 | Ki (human 5HT1B; Table 7; read-out: h5HT1B Ki): 3.35 µM | selectivity ratio h5HT1B (human 5HT1B; [3]): >30 | Ki ([1]; Table 9; read-out: hα1D Ki): 4.03 µM | selectivity ratio hα1D [1, 4]: >30

COC[C@@H]1[C@@H](c2ccccc2)OCCN1c1nc(Nc2ccc(C)cc2)cc(N2CCCCC2)n1 [Example 49]
selectivity ratio hα2A (human α2A adrenoceptor; [2]): 22 | Ki (human α2A adrenoceptor; read-out: hα2A Ki; Table 9): 4.73 µM | selectivity ratio h5HT1B (human 5HT1B; [3]): >30 | Ki (human 5HT1B; read-out: h5HT1B Ki; Table 7): 8.45 µM | selectivity ratio hα1D [1, 4]: 3 | Ki ([1]; read-out: hα1D Ki; Table 9): 0.678 µM

O=C1C(=Nc2ccc(Cl)cc2)c2ccccc2N1c1ccccc1 [Example 97, 3-[(4-CHLOROPHENYL)IMINO]-1-PHENYL-1,3-DIHYDRO-2H-INDOL-2-ONE]
Ki (human α2A adrenoceptor; Table 9; read-out: hα2A Ki): 13.6 µM | selectivity ratio hα2A (human α2A adrenoceptor; [2]): >100 | Ki (human 5HT1B; Table 7; read-out: h5HT1B Ki): 5.06 µM | selectivity ratio h5HT1B (human 5HT1B; [3]): >30 | Ki ([1]; Table 9; read-out: hα1D Ki): 6.45 µM | selectivity ratio hα1D [1, 4]: >100

Cc1ccc(Nc2cc(N3CCCCC3)nc(N3CCN(c4ncccc4C(F)(F)F)CC3)n2)cc1 [Example 34]
Ki (human α2A adrenoceptor; Table 9; read-out: hα2A Ki): 3.68 µM | selectivity ratio hα2A (human α2A adrenoceptor; [2]): >100 | Ki (human 5HT1B; Table 7; read-out: h5HT1B Ki): 1.06 µM | selectivity ratio h5HT1B (human 5HT1B; [3]): >30 | Ki ([1]; Table 9; read-out: hα1D Ki): 1.24 µM | selectivity ratio hα1D [1, 4]: >30

— patent EP2140864A2 (H. Lundbeck A/S, priority 2001, dated 2002)
